Measurements reported in patent US9491960B2, “Sweetener” (Tate & Lyle Ingredients Americas LLC, priority 2013, dated 2016).
Where two headings read alike, the source gives them in different places. Marks after values point to notes of the source that are not given here.

Assays:
[1] = cited from earlier work
[2] = Round table sensory evaluation by test panelists: sucrose equivalent value (SEV) against sucrose reference samples; type: in vivo; details: for Sweetness (mean SEV, Duncan grouping) / Sweetness (mean SEV, two-way ANOVA, level of significance Duncan): 10 SEV solutions in neutral pH water; for Sweetness (mean SEV, Duncan grouping): level of significance for the grouping (Duncan): 5%; for Sweetness (mean SEV, two-way ANOVA, level of significance Duncan): superscripts = Duncan level of significance; for Mean 1 (mean sucrose equivalent value, SEV) / Median 1 (median sucrose equivalent value, SEV): equal sweet 10 SEV concentrations in neutral pH water, references 4%-14% sucrose, room temperature
Experimental: Round table evaluations were performed with test panelists. Equal sweet 10 SEV concentrations in neutral pH water were made for allulose, fructose and sucralose, as well as a composition comprising allulose, fructose and sucralose. The components of the test compositions are described in the below tables. The mixed compositions were calculated using the Beidler mixture equation for the sweeteners. The Beidler mixture equation for sweeteners is as follows: […]
The concentration of each component in the mixture in ppm is divided by SEV (c/R) and is plotted against concentration, c. The slope of the linear regression is the maximum SEV (Rmax). The y-intercept of the linear regression multiplied by Rmax is the half-maximal sweetness concentration, 1/K. Rmax and 1/K are the two parameters used in the Beidler equation.
The equal-molar mixture was tested against reference samples for the panelists to determine SEV values. […] The test samples were served in 2 ounce (approximately 60 ml) soufflé cups coded with 3-digit codes at room temperature. A two minute wait period between samples was enforced. Water and unsalted crackers was available for the panelists to clear their palates before and during testing. EyeQuestion, software distributed by Logic8 BV of Elst, The Netherlands, was used for ballot development and recording of results. Results were collected in EyeQuestion for calculating approximate SEV level of each test sample. The test products analyzed in this experiment are described below in Table 1.

Row | Compound | Sweetness relative to sucrose ([1]; % of the sweetness of sucrose) | Sweetness (mean SEV, Duncan grouping) [2] | Sweetness (mean SEV, two-way ANOVA, level of significance Duncan) [2] | Mean 1 (mean sucrose equivalent value, SEV) [2] | Median 1 (median sucrose equivalent value, SEV) [2] | Sweetness relative to sucrose ([1]; times as sweet as sucrose)
1 | O=C(CO)C(O)C(O)C(O)CO (centres unmarked) [Allulose, allulose] | around 70% | 10.14^b-c | 10.14 | 10.14 | 10 | –
2 | O=C(CO)[C@@H](O)[C@H](O)[C@H](O)CO [Fructose, fructose] | – | 10.14^b-c | 10.14 | 10.14 | 10 | –
3 | sucralose | – | 9.29^c | 9.29 | 9.286 | 10 | approximately 600 times
